Data published in patent US5877147A, “Compounds for medicinal use” (Peptech (UK) Limited, priority 1993, dated 1999).

How the values were obtained:
IgA = IgA levels in treated patients (mucosal immunity); type: in vivo, human; settings: in words
[1] = test system: lung and peritoneal macrophages; settings: orally administered, non-liposome encapsulated; cited from earlier work
melanoma metastases = settings: orally administered, non-liposome encapsulated; cited from earlier work
[2] = test system: Human Papilloma Virus (HPV) infection of the uterine cervix
Method: (§1) The study group consisted of 50 women between 20 and 30 years of age (mean 26.7) with HPV of the cervix. The duration of the disease varied from 1 to 3.5 years. […] To control for variation in Ig content of cervical secretions during the menstrual cycle, treatment was commenced 8-10 days after the beginning of the period.
(§2) Follow up studies on the clinical progression of the HPV infection were performed

[3] = test system: Ig in saliva and genital tract secretions; settings: 3 days after 1 mg GMDP orally x 10 days
Text: as §1
(§3) A number of immunological parameters were monitored before the beginning of treatment; immunoglobulin (Ig) in serum (radial immunodiffusion), Ig in saliva and genital tract secretions (ELISA), subpopulations of immune cells (immunocytofluorimetry).
as §2
(§4) Control values for immunological parameters were also taken from a group of women free of HPV infection. Their age range was 20 to 30 years with a mean of 25.6.

[4] = test system: immunoglobulin (Ig) in serum; settings: 3 days after 1 mg GMDP orally x 10 days
Text: as §1, §3, §2, §4

[5] = test system: subpopulations of immune cells; settings: blood, 3 days after 1 mg GMDP orally x 10 days
Text: as §1, §3, §2, §4

mice = settings: cited from earlier work
[6] = that of MDP = 100%; cited from earlier work

## N-acetyl-D-glucosaminyl-(β1-4)-N-acetylmuramyl-L-alanyl-D-glutamic acid [GMDP-A]
IgA
  levels of IgA in treated patients: especially high

## CCCCCCCCCCCCCCCC(=O)OC[C@H](COP(=O)([O-])OCCNC(=O)[C@H](C)NC(=O)CC[C@@H](NC(=O)[C@H](C)NC(=O)[C@@H](C)O[C@H]1[C@H](O)[C@@H](CO)OC(O)[C@@H]1NC(C)=O)C(N)=O)OC(=O)CCCCCCCCCCCCCCC.O.[Na+] (stereo partly drawn) [MTP-PE, N-acetyl-muramyl-L-alanyl-D-isoglutaminyl-L-alanyl-2-(1',2'-dipalmitoyl-sn-glycero-3'-hydroxy-phosphoryloxy)ethylamide, monosodium]
[1]
  tumouricidal activity in lung and peritoneal macrophages: produced tumouricidal activity
Melanoma metastases
  eradicating well established melanoma metastases: not effective
  inhibiting lung and lymph node metastasis: effective

## CC(=O)NC1C(OC2C(CO)OC(O)C(NC(C)=O)C2OC(C)C(=O)NC(C)C(=O)NC(CCC(=O)O)C(N)=O)OC(CO)C(O)C1O [GMDP, N-acetyl-D-glucosaminyl-(β1-4)-N-acetylmuramyl-L-alanyl-D-isoglutamine]
[2]; 30 in group, 1 mg GMDP orally daily for 10 days, adjunct therapy, placebo 7 of 20
  Recurrence of HPV, number of patients: 3
[2]; 30 in group, 1 mg GMDP orally daily for 10 days, adjunct therapy, placebo 35%
  Recurrence of HPV, % of group: 10%
[2]; 30 in group, 1 mg GMDP orally daily for 10 days, adjunct to antibiotics, laser and cryotherapy, placebo 13 of 20
  Full Cure, number of patients: 27
[2]; 30 in group, 1 mg GMDP orally daily for 10 days, adjunct to laser and cryotherapy, placebo 65%
  Full Cure, % of group: 90%
[2]; GMDP as adjunct to laser and cryotherapy, in words
  rate of cure versus placebo group: increase in the rate of cure
[3]; before 0.326 ± 0.16, spread 0.17
  Mucus of uterine cervix IgD, after treatment: 0.315 mg/dL
[3]; before 3.17 ± 1.05, spread 1.11
  Saliva IgM, after treatment: 1.65 mg/dL
[3]; before 3.18 ± 2.21, spread 1.65
  Mucus of uterine cervix IgM, after treatment: 1.8 mg/dL
[3]; before 9.57 ± 2.19, spread 3.01
  Mucus of uterine cervix IgG, after treatment: 12.01 mg/dL
[3]; before 11.45 ± 3.48, spread 2.98
  Saliva IgA, after treatment: 13.16 mg/dL
[3]; before 16.19 ± 4.01, spread 4.88
  Saliva IgG, after treatment: 15.05 mg/dL
[3]; before 26.53 ± 5.23, spread 4.96
  Saliva sIgA, after treatment: 25.46 mg/dL
[4]; before 123.8 ± 10.4, spread 11.2, p<0.01 vs before
  Serum IgM, after treatment: 160.8 mg/dL
[4]; before 216.0 ± 16.8, spread 18.2
  Serum IgA, after treatment: 228.7 mg/dL
[4]; before 1424 ± 48, spread 51, p<0.01 vs before
  Serum IgG, after treatment: 1258 mg/dL
[5]; before 5.30 ± 0.8, spread 1.07
  B-cells %, after treatment: 5.08%
[5]; before 16.3 ± 2.1, spread 2.3
  CD16 +ve %, after treatment: 13.1%
[5]; before 24.2 ± 2.87, spread 3.17
  CD8 +ve %, after treatment: 20.3%
[5]; before 34.11 ± 3.16, spread 2.68
  Lymphocytes %, after treatment: 35.77%
[5]; before 34.6 ± 3.1, spread 3.8
  CD4 +ve %, after treatment: 41.8%
[5]; before 55.8 ± 4.1, spread 3.6
  CD3 ve %, after treatment: 59.12%
[5]; before 80.1 ± 12.1, spread 21.7
  B-cells absolute, after treatment: 103.8
[5]; before 246.3 ± 31.7, spread 47.1
  CD16 +ve absolute, after treatment: 268.1
[5]; before 365.7 ± 43.4, spread 64.9
  CD8 +ve absolute, after treatment: 415.3
IgA
  levels of IgA in treated patients: especially high
mice
  LD50 (acute toxicity): 7000 mg/kg
[6]
  pyrogenicity relative to MDP: about 50%
